# Source: patent US20200147116A1, “Use of Paeoniflorin-6'-O-benzenesulfonate in treatment of Sjögren's syndrome” (NINGBO ZHIMING BIOTECHNOLOGY CO., LTD., priority 2017, published 2020)
# Values joined by “and” are separate entries in the source; they are usually repeats but may differ in a detail not shown here. Identical values can stand only once. Marks after values point to notes of the source that are not given here.
# Tests used:
# Format in all cases: in vivo
# [1] = tested on: Sjögren's syndrome model mice (C57BL/6 female mice); experiment: Saliva amount in induced Sjögren's syndrome model mice (wet weight method after pilocarpine); conditions: for Saliva amount in SS mice, Pre-administration / Saliva amount, Pre-administration: baseline before administration; for Saliva amount, One week after: one week of administration; for Curative effect judged on saliva amount after one week of medication: high dose of CP-25, TGP, Pae, HCQ at the doses of Table 3
# Procedure: […] Water intake, saliva amount and submaxillary gland pathological analysis and score were determined respectively, on the day before administration, the 7th day and 14th day after administration. The therapeutic effects of CP-25 on Sjögren's syndrome were evaluated by comparison of changes of each index before and after treatment. 2 Sjögren's syndrome model mice: C57BL/6 female mice housed in a SPF environment with successful modeling (The animal model was made via repeated multi-point intracutaneous injection of submaxillary gland homogenate of homologous mice to tail and back of mice). The animal model was made via repeated multi-point intracutaneously injection of submaxillary gland homogenate of homologous mice to tail and back of mice, and the mice with successful modeling were randomly assigned to each group according to comprehensive conditions of mice. At the same time, the average weight and status of each group of mice should be as close as possible. […] […] High dose of said pharmaceutical should be incubated for half an hour before use. Before measurement, mice were anesthetized via intraperitoneal injection of 0.05 ml of 2.4% pentobarbital sodium, and the satisfactory anesthesia was smooth breathing, corneal reflex disappearance and limb muscle relaxation. After complete anesthesia, a mouse was placed in slightly tilted trendelenburg position, and its body was kept warm using the heater. The mouse was injected intraperitoneally with 0.1 ml of 0.025 mg/ml Pilocarpine, and 5 min later, a weighed cotton ball was placed in the mouth of the mouse for 10 min. After taking the ball out, the saliva weight of mice was measured by the wet weight method.
# [2] = tested on: SS mice; experiment: Organic indexes (spleen, submaxillary gland, thymus) in SS mice; conditions: 70 mg/kg
# From the text: 2 Sjögren's syndrome model mice: C57BL/6 female mice housed in a SPF environment with successful modeling (The animal model was made via repeated multi-point intracutaneous injection of submaxillary gland homogenate of homologous mice to tail and back of mice). The animal model was made via repeated multi-point intracutaneously injection of submaxillary gland homogenate of homologous mice to tail and back of mice, and the mice with successful modeling were randomly assigned to each group according to comprehensive conditions of mice. At the same time, the average weight and status of each group of mice should be as close as possible. Paeoniflorin-6′-O-benzenesulfonate, white crystalline powder, purity 98.5%, was dissolved in trace ethanol (75 mg of CP-25 was soluble in 40 μl of ethanol), and then sodium carboxymethylcellulose was added to formulate a suspension of CP-25. Corresponding dose gradient, low dose (17.5 mg/kg), medium dose (35 mg/kg) and high dose (70 mg/kg) of said pharmaceutical should be prepared before medication, stored in 4° C. refrigerator for use. High dose of said pharmaceutical should be incubated for half an hour before use.
# [3] = tested on: submaxillary gland in SS mice; experiment: Histopathological examination and grading of submaxillary gland in SS mice (H&E, Chisholm-Mason scale); conditions: two weeks of administration, four mice of each group
# Procedure: (§1) Mice were sacrificed after two weeks of administration, and then submaxillary glands of four mice of each group were removed and pathologically observed. At first, the submaxillary gland should be fixed in 10% buffered formalin for 24 h, followed by washing, dehydration and clearing, wax-filling, embedding, sectioning and finally H&E staining. […] Results were graded pathologically.
# (§2) Note: The histological findings graded of submaxillary glands according to the Chisholm-Mason scale; grade 0, absence of lymphocytic infiltration; grade I, slight lymphocytic infiltration; grade II, moderate lymphocytic infiltration; grade III, one focus of lymphocytic infiltration per 4 mm^2 tissue; grade IV, more than one focus of lymphocytic infiltration per 4 mm^2 tissue (Note: One focus of lymphocytic infiltration has been defined as an aggregate of 50 or more lymphocytes gathered in the labial gland stroma per 4 mm^2 of tissue.
# [4] = tested on: NOD mice; experiment: Saliva amount in NOD mice; conditions: NOD mice; for Saliva amount in NOD mice, Pre-administration: baseline before administration
# Procedure: Before measurement, mice were anesthetized via intraperitoneal injection of 0.05 ml of 2.4% pentobarbital sodium, and the satisfactory anesthesia was smooth breathing, corneal reflex disappearance and limb muscle relaxation. After complete anesthesia, a mouse was placed in slightly tilted trendelenburg position, and its body was kept warm using the heater. The mouse was injected intraperitoneally with 0.1 ml of 0.025 mg/ml Pilocarpine, and 5 min later, a weighed cotton ball was placed in the mouth of the mouse for 10 min. After taking the ball out, the saliva weight of mice was measured by the wet weight method.
# Therapeutic effects of on Sjögren's syndrome CP-25 in NOD mice.
# [5] = tested on: NOD model mice; experiment: Organic indexes (spleen, submaxillary gland, thymus) in NOD model mice; conditions: 70 mg/kg
# [6] = tested on: submaxillary glands in NOD mice; experiment: Pathological grading of submaxillary glands in NOD mice; conditions: NOD mice
# Procedure: as §1, §2
compound,measurement,setting,value
"C[C@@]12C[C@@]3(O)O[C@@H](O1)[C@]1(COC(=O)c4ccccc4)[C@H]3C[C@@]12O[C@@H]1O[C@H](CO)[C@@H](O)[C@H](O)[C@H]1O [Pae, Paeoniflorin]","Saliva amount in SS mice, One week after administration","[1]; Example 1, C57BL/6 SS mice, 70 mg/kg",17.01 ± 2.10 mg/each mouse/10 min
same,"Saliva amount in SS mice, Two weeks after administration","[1]; Example 1, C57BL/6 SS mice, 70 mg/kg, two weeks",17.17 ± 2.72^ mg/each mouse/10 min
same,"Saliva amount in SS mice, Pre-administration","[1]; Example 1, C57BL/6 SS mice, dose group 70 mg/kg",23.50 ± 2.89 mg/each mouse/10 min
same,"Saliva amount, One week after","[1]; SS model mice, 70 mg/kg",17.01 ± 2.10 mg/10 min
same,"Saliva amount, Two weeks after","[1]; SS model mice, 70 mg/kg, two weeks of administration",17.17 ± 2.72^ mg/10 min
same,"Saliva amount, Pre-administration","[1]; SS model mice, dose group 70 mg/kg",23.50 ± 2.89 mg/10 min
same,Curative effect judged on saliva amount after one week of medication,[1]; SS model mice,did not show apparent effect
same,Spleen index,[2],9.15 ± 1.44 mg/g
same,Submaxillary gland index,[2],3.71 ± 0.68 mg/g
same,Thymus index,[2],0.85 ± 0.23 mg/g
same,Score: mice with submaxillary gland pathology Grade 0,[3]; 70 mg/kg,0
same,Score: mice with submaxillary gland pathology Grade I,[3]; 70 mg/kg,0
same,Score: mice with submaxillary gland pathology Grade II,[3]; 70 mg/kg,0
same,Score: mice with submaxillary gland pathology Grade III,"[3]; 70 mg/kg, 70 mg/kg",2 and 1
same,"Saliva amount in NOD mice, One week after administration",[4]; 70 mg/kg,15.40 ± 1.62 mg/each mouse/10 min
same,"Saliva amount in NOD mice, Two weeks after administration",[4]; 70 mg/kg,14.75 ± 1.25 mg/each mouse/10 min
same,"Saliva amount in NOD mice, Pre-administration",[4]; dose group 70 mg/kg,19.83 ± 1.94 mg/each mouse/10 min
same,Spleen index,[5],5.3 ± 0.5 mg/g
same,Submaxillary gland index,[5],4.5 ± 0.5^ mg/g
same,Thymus index,[5],1.0 ± 0.1 mg/g
same,Score: mice with submaxillary gland pathology Grade 0,[6]; 70 mg/kg,0
same,Score: mice with submaxillary gland pathology Grade I,[6]; 70 mg/kg,0
same,Score: mice with submaxillary gland pathology Grade II,[6]; 70 mg/kg,0
same,Score: mice with submaxillary gland pathology Grade III,[6]; 70 mg/kg,1
same,Score: mice with submaxillary gland pathology Grade IV,[6]; 70 mg/kg,3
"CCN(CCO)CCCC(C)Nc1ccnc2cc(Cl)ccc12 (stereo not shown) [HCQ, hydroxychloroquine, reference compound]","Saliva amount in SS mice, One week after administration","[1]; Example 1, C57BL/6 SS mice, 80 mg/kg",18.17 ± 3.65 mg/each mouse/10 min
same,"Saliva amount in SS mice, Pre-administration","[1]; Example 1, C57BL/6 SS mice, dose group 80 mg/kg",23.17 ± 2.79 mg/each mouse/10 min
same,"Saliva amount, One week after","[1]; SS model mice, 80 mg/kg",18.17 ± 3.65 mg/10 min
same,"Saliva amount, Pre-administration","[1]; SS model mice, dose group 80 mg/kg",23.17 ± 2.79 mg/10 min
same,Curative effect judged on saliva amount after one week of medication,[1]; SS model mice,did not show apparent effect
same,Score: mice with submaxillary gland pathology Grade 0,[3]; 80 mg/kg,0
same,Score: mice with submaxillary gland pathology Grade I,[3]; 80 mg/kg,0
same,Score: mice with submaxillary gland pathology Grade II,[3]; 80 mg/kg,0
same,Score: mice with submaxillary gland pathology Grade III,[3]; 80 mg/kg,3
same,Score: mice with submaxillary gland pathology Grade IV,[3]; 80 mg/kg,1^#
same,"Saliva amount in NOD mice, One week after administration",[4]; 80 mg/kg,17.00 ± 1.61 mg/each mouse/10 min
same,"Saliva amount in NOD mice, Two weeks after administration",[4]; 80 mg/kg,17.00 ± 1.41 mg/each mouse/10 min
same,"Saliva amount in NOD mice, Pre-administration",[4]; dose group 80 mg/kg,19.17 ± 3.18 mg/each mouse/10 min
same,Score: mice with submaxillary gland pathology Grade 0,[6]; 80 mg/kg,0
same,Score: mice with submaxillary gland pathology Grade I,[6]; 80 mg/kg,0
same,Score: mice with submaxillary gland pathology Grade II,[6]; 80 mg/kg,0
same,Score: mice with submaxillary gland pathology Grade III,[6]; 80 mg/kg,3
same,Score: mice with submaxillary gland pathology Grade IV,[6]; 80 mg/kg,1 ^#
